Measured values taken from patent publication US20140271723A1 (priority 2013, published 2014).

Key:
[1] = tested on: lymphatic endothelial cell (LEC) monolayers; conditions: cited from earlier work
CRSBP-1 = CRSBP-1 (Mus musculus, UniProt Q8BHC0); conditions: cited from earlier work
pseudorabies virus (PRV) = tested on: pseudorabies virus (PRV); design: species or system pigs; conditions: pig, in vivo
[2] = tested on: lymphatic intercellular junctions; conditions: mouse, in vivo; cited from earlier work

Chain of CRSBP-1 (Q8BHC0 24-318): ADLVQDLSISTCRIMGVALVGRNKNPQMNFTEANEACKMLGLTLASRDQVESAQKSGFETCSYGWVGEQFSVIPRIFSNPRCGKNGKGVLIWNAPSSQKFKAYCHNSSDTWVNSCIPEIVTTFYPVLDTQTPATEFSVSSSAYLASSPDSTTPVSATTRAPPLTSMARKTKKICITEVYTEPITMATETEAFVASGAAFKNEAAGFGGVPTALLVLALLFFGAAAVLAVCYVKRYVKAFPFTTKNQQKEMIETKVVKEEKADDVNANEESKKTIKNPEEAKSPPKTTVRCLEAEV

Substance	disruption of VE-cadherin-mediated discontinuous intercellular adhesion and opening of intercellular junctions [1]	binding to CRSBP-1 (CRSBP-1)	increase in serum antibody titer as compared to vaccine only (pseudorabies virus (PRV)) [fold]	activity in control experiments as compared to VEGF peptide and PDGF peptide [2]
KKSVRGKGKGQKRKRKKSRYKSWSV [VEGF peptide]	induce disruption	high affinity		
YVRVRRPPKGKHRKFKHTH [PDGF peptide]	induce disruption	high affinity	~4	
polyarginine				very weak activity
polylysine				very weak activity
